Experiment in all cases: Kinase inhibitor specificity profiling (Reaction Biology Corporation)
Common to all, as to type: biochemical
Parameters in all cases: % Enzyme Activity (relative to DMSO controls): concentration or dose not given beside the values

In experiment [1] the target is T1, panel of 370 protein kinases (Homo sapiens, UniProt O00141).
T1 construct: purchased Reaction Biology Corporation (assay service)
As to conditions: 2 h, kinase SGK1; read-out: % Enzyme Activity (relative to DMSO controls).

The target of experiment [2] is T2, panel of 370 protein kinases (Homo sapiens, UniProt Q16816).
T2 construct: purchased Reaction Biology Corporation (assay service)
The note with it: 2 h, kinase PHKg1; read-out: % Enzyme Activity (relative to DMSO controls).

Experiment [3] deals with T3, panel of 370 protein kinases (Homo sapiens, UniProt Q9NQU5).
T3 construct: purchased Reaction Biology Corporation (assay service)
The note with it: 2 h, kinase PAK6; read-out: % Enzyme Activity (relative to DMSO controls).

In experiment [4] the target is T4, panel of 370 protein kinases (Homo sapiens, UniProt Q6DT37).
T4 construct: purchased Reaction Biology Corporation (assay service)
The note with it: 2 h, kinase DMPK2; read-out: % Enzyme Activity (relative to DMSO controls).

Experiment [5] addresses T5, panel of 370 protein kinases (Homo sapiens, UniProt P36896).
T5 construct: purchased Reaction Biology Corporation (assay service)
As to conditions: 2 h, kinase ALK4/ACVR1B; read-out: % Enzyme Activity (relative to DMSO controls).

Experiment [6] deals with T6, panel of 370 protein kinases (Homo sapiens, UniProt O14733).
T6 construct: purchased Reaction Biology Corporation (assay service)
The note with it: kinase MKK7.

For experiment [7], the target named is T7, panel of 370 protein kinases (Homo sapiens, UniProt Q15569).
T7 construct: purchased Reaction Biology Corporation (assay service)
As to conditions: 2 h, kinase TESK1; read-out: % Enzyme Activity (relative to DMSO controls).

Experiment [8] deals with T8, panel of 370 protein kinases (Homo sapiens, UniProt Q9Y6E0).
T8 construct: purchased Reaction Biology Corporation (assay service)
As to conditions: kinase MST3/STK24.

For experiment [9], the target named is T9, panel of 370 protein kinases (Homo sapiens, UniProt O43781).
T9 construct: purchased Reaction Biology Corporation (assay service)
The note with it: 2 h, kinase DYRK3; read-out: % Enzyme Activity (relative to DMSO controls).

For experiment [10], the target named is T10, panel of 370 protein kinases (Homo sapiens, UniProt Q9Y463).
T10 construct: purchased Reaction Biology Corporation (assay service)
The note with it: 2 h, kinase DYRK1B; read-out: % Enzyme Activity (relative to DMSO controls).

The target in experiment [11] is T11, panel of 370 protein kinases (Homo sapiens, UniProt P52564).
T11 construct: purchased Reaction Biology Corporation (assay service)
As to conditions: 2 h, kinase MKK6; read-out: % Enzyme Activity (relative to DMSO controls).

The target in experiment [12] is T12, panel of 370 protein kinases (Homo sapiens, UniProt O75460).
T12 construct: purchased Reaction Biology Corporation (assay service)
The note with it: 2 h, kinase ERN1/IRE1; read-out: % Enzyme Activity (relative to DMSO controls).

For experiment [13], the target named is T13, panel of 370 protein kinases (Homo sapiens, UniProt Q7KZI7).
T13 construct: purchased Reaction Biology Corporation (assay service)
The note with it: 2 h, kinase MARK2/PAR-1Ba; read-out: % Enzyme Activity (relative to DMSO controls).

The target of experiment [14] is T14, panel of 370 protein kinases (Homo sapiens, UniProt Q9BYP7).
T14 construct: purchased Reaction Biology Corporation (assay service)
As to conditions: 2 h, kinase WNK3; read-out: % Enzyme Activity (relative to DMSO controls).

The target of experiment [15] is T15, panel of 370 protein kinases (Homo sapiens, UniProt Q13164).
T15 construct: purchased Reaction Biology Corporation (assay service)
The note with it: 2 h, kinase ERK5/MAPK7; read-out: % Enzyme Activity (relative to DMSO controls).

Experiment [16] deals with T16, panel of 370 protein kinases (Homo sapiens, UniProt P25098).
T16 construct: purchased Reaction Biology Corporation (assay service)
The note with it: 2 h, kinase GRK2; read-out: % Enzyme Activity (relative to DMSO controls).

The target of experiment [17] is T17, panel of 370 protein kinases (Homo sapiens, UniProt Q15208).
T17 construct: purchased Reaction Biology Corporation (assay service)
The note with it: 2 h, kinase STK38/NDR1; read-out: % Enzyme Activity (relative to DMSO controls).

The test system of experiment [18] is panel of 370 protein kinases.
Experiment [19] has as its target T18, panel of 370 protein kinases (Homo sapiens, UniProt P11362).
T18 construct: purchased Reaction Biology Corporation (assay service)
As to conditions: 2 h, kinase FGFR1; read-out: % Enzyme Activity (relative to DMSO controls).

The target of experiment [20] is T19, panel of 370 protein kinases (Homo sapiens, UniProt Q96PF2).
T19 construct: purchased Reaction Biology Corporation (assay service)
The note with it: 2 h, kinase TSSK2; read-out: % Enzyme Activity (relative to DMSO controls).

Experiment [21] addresses T20, panel of 370 protein kinases (Homo sapiens, UniProt P29376).
T20 construct: purchased Reaction Biology Corporation (assay service)
As to conditions: 2 h, kinase TYK1/LTK; read-out: % Enzyme Activity (relative to DMSO controls).

Each structure is given as a SMILES string. “And” between values parts separate entries of the source, which are not always exact repeats. Identical values can stand only once.

The values below come from PMC9133015 (Nature Communications, 2022).

T6 sequence (O14733 whole entry): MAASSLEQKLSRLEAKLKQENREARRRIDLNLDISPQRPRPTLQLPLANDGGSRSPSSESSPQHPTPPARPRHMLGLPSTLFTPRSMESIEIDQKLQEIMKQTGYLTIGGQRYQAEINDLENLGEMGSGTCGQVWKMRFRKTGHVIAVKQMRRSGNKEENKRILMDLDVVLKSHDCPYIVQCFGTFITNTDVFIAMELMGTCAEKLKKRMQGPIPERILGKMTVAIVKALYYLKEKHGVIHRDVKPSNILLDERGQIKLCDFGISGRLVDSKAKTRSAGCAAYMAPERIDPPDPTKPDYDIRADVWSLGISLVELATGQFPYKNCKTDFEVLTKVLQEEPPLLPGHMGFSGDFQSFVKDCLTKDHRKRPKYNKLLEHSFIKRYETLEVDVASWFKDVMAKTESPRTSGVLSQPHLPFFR
T8 sequence (Q9Y6E0 whole entry): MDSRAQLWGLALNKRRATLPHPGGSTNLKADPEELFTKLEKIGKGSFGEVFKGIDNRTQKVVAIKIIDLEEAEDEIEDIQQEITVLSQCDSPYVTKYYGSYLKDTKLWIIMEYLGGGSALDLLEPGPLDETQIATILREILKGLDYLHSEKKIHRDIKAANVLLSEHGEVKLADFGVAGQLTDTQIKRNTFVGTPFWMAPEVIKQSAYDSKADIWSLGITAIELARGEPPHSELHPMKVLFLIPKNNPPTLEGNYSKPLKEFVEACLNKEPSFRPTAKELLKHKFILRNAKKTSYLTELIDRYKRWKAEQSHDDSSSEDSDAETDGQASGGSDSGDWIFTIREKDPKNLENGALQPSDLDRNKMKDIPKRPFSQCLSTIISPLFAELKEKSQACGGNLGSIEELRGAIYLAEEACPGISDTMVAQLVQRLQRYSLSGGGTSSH
T12 sequence (O75460 19-977): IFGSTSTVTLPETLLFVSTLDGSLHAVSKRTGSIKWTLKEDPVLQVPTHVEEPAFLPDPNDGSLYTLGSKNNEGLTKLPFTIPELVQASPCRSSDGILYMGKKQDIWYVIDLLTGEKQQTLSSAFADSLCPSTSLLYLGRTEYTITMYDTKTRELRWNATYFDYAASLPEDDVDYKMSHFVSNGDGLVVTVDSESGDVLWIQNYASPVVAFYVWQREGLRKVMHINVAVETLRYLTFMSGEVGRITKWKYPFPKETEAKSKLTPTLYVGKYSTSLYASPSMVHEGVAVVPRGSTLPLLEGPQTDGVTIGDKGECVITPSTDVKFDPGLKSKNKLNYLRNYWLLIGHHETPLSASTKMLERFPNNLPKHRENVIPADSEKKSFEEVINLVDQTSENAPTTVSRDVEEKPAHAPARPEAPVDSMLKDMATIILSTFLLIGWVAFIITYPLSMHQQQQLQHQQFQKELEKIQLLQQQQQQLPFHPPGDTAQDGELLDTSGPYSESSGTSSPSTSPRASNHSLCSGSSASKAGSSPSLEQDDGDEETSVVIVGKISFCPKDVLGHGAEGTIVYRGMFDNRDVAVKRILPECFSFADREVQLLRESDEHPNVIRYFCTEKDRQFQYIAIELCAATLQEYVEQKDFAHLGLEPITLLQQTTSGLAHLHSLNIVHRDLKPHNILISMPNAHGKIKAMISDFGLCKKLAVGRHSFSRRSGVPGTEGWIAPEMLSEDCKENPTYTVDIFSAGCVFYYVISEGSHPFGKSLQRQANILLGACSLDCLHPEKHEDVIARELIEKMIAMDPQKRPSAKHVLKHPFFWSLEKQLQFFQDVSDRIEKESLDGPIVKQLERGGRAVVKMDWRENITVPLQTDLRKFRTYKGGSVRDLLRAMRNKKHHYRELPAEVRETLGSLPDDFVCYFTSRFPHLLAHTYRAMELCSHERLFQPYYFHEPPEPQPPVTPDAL
T15 sequence (Q13164 whole entry): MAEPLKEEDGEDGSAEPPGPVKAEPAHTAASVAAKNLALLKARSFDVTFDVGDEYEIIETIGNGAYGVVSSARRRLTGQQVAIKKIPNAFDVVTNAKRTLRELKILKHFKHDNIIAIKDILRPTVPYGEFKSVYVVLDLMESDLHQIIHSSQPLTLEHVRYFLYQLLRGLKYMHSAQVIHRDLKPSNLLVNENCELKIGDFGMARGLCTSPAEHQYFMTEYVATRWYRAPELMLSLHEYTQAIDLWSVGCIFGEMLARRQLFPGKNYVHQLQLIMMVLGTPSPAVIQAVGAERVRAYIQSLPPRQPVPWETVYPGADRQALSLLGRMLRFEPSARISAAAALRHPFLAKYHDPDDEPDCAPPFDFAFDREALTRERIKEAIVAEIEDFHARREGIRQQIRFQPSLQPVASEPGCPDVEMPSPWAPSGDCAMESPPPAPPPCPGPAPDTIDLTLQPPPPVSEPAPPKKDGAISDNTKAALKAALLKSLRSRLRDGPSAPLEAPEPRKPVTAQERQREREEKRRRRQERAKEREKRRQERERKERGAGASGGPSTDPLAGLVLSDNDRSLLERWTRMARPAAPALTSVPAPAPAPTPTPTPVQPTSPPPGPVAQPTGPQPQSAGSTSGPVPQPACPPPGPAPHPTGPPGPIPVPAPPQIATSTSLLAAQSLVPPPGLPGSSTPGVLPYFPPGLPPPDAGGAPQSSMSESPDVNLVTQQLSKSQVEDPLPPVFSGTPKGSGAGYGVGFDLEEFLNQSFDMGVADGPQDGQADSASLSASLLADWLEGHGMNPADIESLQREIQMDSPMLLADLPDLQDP
T9 sequence (O43781 whole entry): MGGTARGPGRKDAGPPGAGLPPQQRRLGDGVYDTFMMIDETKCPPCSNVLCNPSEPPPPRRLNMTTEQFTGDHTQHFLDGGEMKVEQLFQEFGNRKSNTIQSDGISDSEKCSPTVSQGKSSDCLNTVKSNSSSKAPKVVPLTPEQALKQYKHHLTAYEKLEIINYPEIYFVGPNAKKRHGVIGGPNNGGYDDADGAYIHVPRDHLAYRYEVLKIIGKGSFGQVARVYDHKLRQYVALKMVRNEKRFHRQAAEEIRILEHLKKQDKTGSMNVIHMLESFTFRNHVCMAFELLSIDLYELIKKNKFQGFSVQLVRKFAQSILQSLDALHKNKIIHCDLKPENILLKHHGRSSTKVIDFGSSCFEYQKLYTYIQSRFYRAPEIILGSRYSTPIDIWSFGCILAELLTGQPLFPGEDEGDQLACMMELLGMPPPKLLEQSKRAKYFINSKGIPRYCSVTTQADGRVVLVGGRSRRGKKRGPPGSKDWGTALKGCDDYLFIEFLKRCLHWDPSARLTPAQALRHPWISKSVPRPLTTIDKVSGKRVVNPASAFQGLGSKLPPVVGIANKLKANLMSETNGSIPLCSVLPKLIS
T3 sequence (Q9NQU5 whole entry): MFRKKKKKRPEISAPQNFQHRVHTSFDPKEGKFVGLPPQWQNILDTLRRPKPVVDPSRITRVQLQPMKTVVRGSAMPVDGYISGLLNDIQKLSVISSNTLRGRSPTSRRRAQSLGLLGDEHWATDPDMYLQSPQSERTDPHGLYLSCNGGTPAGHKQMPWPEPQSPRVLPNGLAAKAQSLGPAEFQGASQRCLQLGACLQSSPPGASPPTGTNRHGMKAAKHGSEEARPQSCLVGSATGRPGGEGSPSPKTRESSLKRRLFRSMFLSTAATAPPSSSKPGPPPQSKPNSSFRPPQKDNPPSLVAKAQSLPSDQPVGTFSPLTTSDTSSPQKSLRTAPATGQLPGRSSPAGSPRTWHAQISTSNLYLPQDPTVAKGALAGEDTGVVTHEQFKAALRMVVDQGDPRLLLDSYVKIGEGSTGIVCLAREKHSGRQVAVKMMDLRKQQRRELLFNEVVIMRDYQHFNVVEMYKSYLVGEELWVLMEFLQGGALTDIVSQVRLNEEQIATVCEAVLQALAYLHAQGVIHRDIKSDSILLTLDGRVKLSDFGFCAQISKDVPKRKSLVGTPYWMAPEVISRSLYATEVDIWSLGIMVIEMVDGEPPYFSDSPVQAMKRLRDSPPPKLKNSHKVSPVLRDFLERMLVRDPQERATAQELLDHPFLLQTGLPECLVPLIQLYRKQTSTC
T13 sequence (Q7KZI7 whole entry): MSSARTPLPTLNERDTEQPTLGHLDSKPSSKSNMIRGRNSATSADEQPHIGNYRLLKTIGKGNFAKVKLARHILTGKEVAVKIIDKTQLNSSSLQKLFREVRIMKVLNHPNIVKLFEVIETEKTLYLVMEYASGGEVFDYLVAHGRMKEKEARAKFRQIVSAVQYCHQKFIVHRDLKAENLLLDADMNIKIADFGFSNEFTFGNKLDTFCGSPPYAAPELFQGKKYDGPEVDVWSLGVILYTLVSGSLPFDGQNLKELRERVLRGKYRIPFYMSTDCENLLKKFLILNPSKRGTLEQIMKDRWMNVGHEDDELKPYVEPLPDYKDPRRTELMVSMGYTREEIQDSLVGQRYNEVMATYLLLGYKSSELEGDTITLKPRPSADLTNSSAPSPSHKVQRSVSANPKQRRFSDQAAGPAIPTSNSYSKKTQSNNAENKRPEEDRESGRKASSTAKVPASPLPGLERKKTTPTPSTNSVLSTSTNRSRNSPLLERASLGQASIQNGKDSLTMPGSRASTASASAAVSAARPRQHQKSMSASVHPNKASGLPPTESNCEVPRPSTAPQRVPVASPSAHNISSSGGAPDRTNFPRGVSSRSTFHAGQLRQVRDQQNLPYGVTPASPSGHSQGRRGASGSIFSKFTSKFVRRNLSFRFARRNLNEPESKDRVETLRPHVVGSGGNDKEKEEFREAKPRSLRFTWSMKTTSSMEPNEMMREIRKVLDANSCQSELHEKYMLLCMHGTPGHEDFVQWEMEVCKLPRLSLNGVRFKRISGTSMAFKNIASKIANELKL
T11 sequence (P52564 whole entry): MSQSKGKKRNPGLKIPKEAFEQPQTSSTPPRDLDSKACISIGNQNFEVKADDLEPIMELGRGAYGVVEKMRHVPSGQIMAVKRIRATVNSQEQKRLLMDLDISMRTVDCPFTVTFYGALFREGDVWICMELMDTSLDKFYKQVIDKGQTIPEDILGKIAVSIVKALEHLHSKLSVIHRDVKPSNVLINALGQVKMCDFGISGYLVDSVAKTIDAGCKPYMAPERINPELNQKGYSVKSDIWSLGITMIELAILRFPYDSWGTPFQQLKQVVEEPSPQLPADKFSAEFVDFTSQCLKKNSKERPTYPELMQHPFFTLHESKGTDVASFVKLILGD

Take `CCN1CCN(C(=O)c2ccc(Nc3ncc(F)c(-c4ccc5nc(N(C)C)sc5c4)n3)nc2)CC1` [YK-2-69]: the remaining activity at 1 µM was determined as 60.9% in experiment [1]; 89.4% in [2]; 105% in experiment [3]; 97.7% in experiment [4]; 102% in experiment [5]; 108% in [7]. Besides, the remaining activity at 1 µM turned out to be 50.9% in experiment [9]; 40.7% in experiment [10]; 89.5% in experiment [11]; 89.3% in experiment [12]; 83.2% in [13]; 98.9% in experiment [14]. Further, the remaining activity at 1 µM in [15] was 104%; in [16] it was 112%; in experiment [17], 85.5%; in experiment [19] it was 76.5%; in experiment [20], 96.7%; in experiment [21], 109%. The “% Enzyme Activity (relative to DMSO controls)” value in experiment [6] was 97.65% and 97.50%; in [8], 107.35% and 104.50%; in experiment [18] (kinase LYN B) it was 102.77% and 100.49%; in experiment [18] (kinase PKCb2) it was 92.22% and 91.87%; in experiment [18] (kinase PKG1b), 114.44% and 107.54%. Also, in experiment [18] (1 µM), the “kinase selectivity against 370 kinases” value was “selectivity over 360+ kinases”.
